“And” between values parts separate entries of the source, which are not always exact repeats. Equal entries are not always repeated. Toxic doses and inconclusive results are not listed.
Test system: CD2F1 mice, L1210 leukemia ip, survival T/C
Experiment: NCI In Vivo Anticancer Drug Screen. Data for tumor model L1210 Leukemia (intraperitoneal) in CD2F1 (CDF1) mice
Conditions: higher = longer survival
Procedure, shortened: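 Transplantable tumor in mice; compound-treated vs vehicle-treated groups. Read-out = treated/control ratio of the measured endpoint.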

[1] = endpoint: mean survival time, dose: 100.0 mg/kg/injection, schedule: Q01DX001 (ip), vehicle: saline
[2] = endpoint: mean survival time, dose: 200.0 mg/kg/injection, schedule: Q01DX001 (ip), vehicle: saline
[3] = endpoint: mean survival time, dose: 12.5 mg/kg/injection, schedule: Q01DX009 (ip), vehicle: water
[4] = endpoint: mean survival time, dose: 25.0 mg/kg/injection, schedule: Q01DX009 (ip), vehicle: water
[5] = endpoint: mean survival time, dose: 50.0 mg/kg/injection, schedule: Q01DX009 (ip), vehicle: water
[6] = endpoint: mean survival time, dose: 100.0 mg/kg/injection, schedule: Q01DX009 (ip), vehicle: water
[7] = endpoint: mean survival time, dose: 100.0 mg/kg/injection, schedule: Q01DX009 (ip), vehicle: other
[8] = endpoint: mean survival time, dose: 200.0 mg/kg/injection, schedule: Q01DX009 (ip), vehicle: other
[9] = endpoint: mean survival time, dose: 25.0 mg/kg/injection, schedule: Q01DX009 (ip), vehicle: other
[10] = endpoint: mean survival time, dose: 50.0 mg/kg/injection, schedule: Q01DX009 (ip), vehicle: other
[11] = endpoint: mean survival time, dose: 100.0 mg/kg/injection, schedule: Q01DX001 (ip), vehicle: saline with Tween-80
[12] = endpoint: mean survival time, dose: 200.0 mg/kg/injection, schedule: Q01DX001 (ip), vehicle: saline with Tween-80

CCCn1cnc2c(=S)nc[nH]c21
T/C (endpoint: mean survival time, dose: 150.0 mg/kg/injection, schedule: Q01DX Z (ip), vehicle: carboxymethylcellulose (CMC)): 119 % of control
T/C (endpoint: mean survival time, dose: 150.0 mg/kg/injection, schedule: Q04DX003 (ip), vehicle: saline with Tween-80): 150 % of control
T/C (endpoint: mean survival time, dose: 200.0 mg/kg/injection, schedule: Q01DX Z (ip), vehicle: carboxymethylcellulose (CMC)): 95 % of control
T/C (endpoint: mean survival time, dose: 300.0 mg/kg/injection, schedule: Q04DX003 (ip), vehicle: saline with Tween-80): 161 % of control
T/C (endpoint: mean survival time, dose: 600.0 mg/kg/injection, schedule: Q04DX003 (ip), vehicle: saline with Tween-80): 111 % of control

Cc1c(/C=N/NC=O)[nH]c(=O)[nH]c1=O
T/C [1]: 89 % of control
T/C [2]: 91 % of control
T/C (endpoint: mean survival time, dose: 400.0 mg/kg/injection, schedule: Q01DX001 (ip), vehicle: saline): 86 % of control

COc1cc2c(cc1OC)C(NC=O)CCC2 (configuration not stated)
T/C [3]: 102 % of control
T/C [4]: 102 % of control
T/C [5]: 102 % of control
T/C [6]: 100 % of control
T/C (endpoint: mean survival time, dose: 200.0 mg/kg/injection, schedule: Q01DX009 (ip), vehicle: water): 104 % of control

CCCCOC(=O)c1cc([N+](=O)[O-])cc([N+](=O)[O-])c1Sc1ncnc2nc[nH]c12
T/C (endpoint: mean survival time, dose: 0.63 mg/kg/injection, schedule: Q01DX005 (ip), vehicle: other): 108 % of control
T/C (endpoint: mean survival time, dose: 1.25 mg/kg/injection, schedule: Q01DX005 (ip), vehicle: other): 95 % of control
T/C (endpoint: mean survival time, dose: 2.5 mg/kg/injection, schedule: Q01DX005 (ip), vehicle: other): 110 % of control
T/C (endpoint: mean survival time, dose: 5.0 mg/kg/injection, schedule: Q01DX005 (ip), vehicle: other): 113 % of control
T/C (endpoint: mean survival time, dose: 9.4 mg/kg/injection, schedule: Q01DX005 (ip), vehicle: other): 98 % of control
T/C (endpoint: mean survival time, dose: 10.0 mg/kg/injection, schedule: Q01DX005 (ip), vehicle: other): 115 % of control
T/C (endpoint: mean survival time, dose: 18.8 mg/kg/injection, schedule: Q01DX005 (ip), vehicle: other): 103 % of control
T/C (endpoint: mean survival time, dose: 37.5 mg/kg/injection, schedule: Q01DX005 (ip), vehicle: other): 109 % of control
T/C (endpoint: mean survival time, dose: 75.0 mg/kg/injection, schedule: Q01DX005 (ip), vehicle: other): 113 % of control

CC(=N\N)/C(C)=N/N
T/C (endpoint: mean survival time, dose: 100.0 mg/kg/injection, schedule: Q04DX003 (ip), vehicle: saline with Tween-80): 105 % of control

CCOP(=O)(OCC)C(C)c1ccccc1 (configuration not stated)
T/C (endpoint: mean survival time, dose: 100.0 mg/kg/injection, schedule: Q01DX009 (ip), vehicle: saline with Tween-80): 100 % of control
T/C (endpoint: mean survival time, dose: 200.0 mg/kg/injection, schedule: Q01DX009 (ip), vehicle: saline with Tween-80): 94 % of control

Cc1[nH]nc2c1CCCC2
T/C [7]: 101 % of control
T/C [8]: 97 % of control

CN(Cc1ccccc1)/N=N/c1nc[nH]c1C(N)=O
T/C (endpoint: mean survival time, dose: 4.0 mg/kg/injection, schedule: Q01DX009 (ip), vehicle: Klucel (hydroxypropylcellulose) (HPC)): 98 % of control
T/C (endpoint: mean survival time, dose: 8.0 mg/kg/injection, schedule: Q01DX009 (ip), vehicle: Klucel (hydroxypropylcellulose) (HPC)): 98 % of control
T/C (endpoint: mean survival time, dose: 16.1 mg/kg/injection, schedule: Q01DX009 (ip), vehicle: Klucel (hydroxypropylcellulose) (HPC)): 102 % of control
T/C (endpoint: mean survival time, dose: 32.2 mg/kg/injection, schedule: Q01DX009 (ip), vehicle: Klucel (hydroxypropylcellulose) (HPC)): 106 % of control
T/C (endpoint: mean survival time, dose: 129.0 mg/kg/injection, schedule: Q01DX009 (ip), vehicle: Klucel (hydroxypropylcellulose) (HPC)): 95 % of control
T/C (endpoint: mean survival time, dose: 258.0 mg/kg/injection, schedule: Q01DX009 (ip), vehicle: Klucel (hydroxypropylcellulose) (HPC)): 70 % of control
T/C (endpoint: median survival time, dose: 8.0 mg/kg/injection, schedule: Q03HX016 (ip), vehicle: saline with Tween-80): 106 % of control
T/C (endpoint: median survival time, dose: 8.0 mg/kg/injection, schedule: Q03HX024 (ip), vehicle: saline with Tween-80): 115 % of control
T/C (endpoint: median survival time, dose: 16.0 mg/kg/injection, schedule: Q03HX016 (ip), vehicle: saline with Tween-80): 112 % of control
T/C (endpoint: median survival time, dose: 16.0 mg/kg/injection, schedule: Q03HX024 (ip), vehicle: saline with Tween-80): 124 % of control
T/C (endpoint: median survival time, dose: 32.0 mg/kg/injection, schedule: Q03HX016 (ip), vehicle: saline with Tween-80): 123 % of control
T/C (endpoint: median survival time, dose: 64.0 mg/kg/injection, schedule: Q04DX003 (ip), vehicle: saline with Tween-80): 116 % of control
T/C (endpoint: median survival time, dose: 64.0 mg/kg/injection, schedule: Q08DX002 (ip), vehicle: saline with Tween-80): 105 % of control
T/C (endpoint: median survival time, dose: 128.0 mg/kg/injection, schedule: Q04DX003 (ip), vehicle: saline with Tween-80): 123 % of control
T/C (endpoint: median survival time, dose: 128.0 mg/kg/injection, schedule: Q08DX002 (ip), vehicle: saline with Tween-80): 112 % of control
T/C (endpoint: median survival time, dose: 256.0 mg/kg/injection, schedule: Q01DX009 (ip), vehicle: saline with Tween-80): 120 % of control
T/C (endpoint: median survival time, dose: 256.0 mg/kg/injection, schedule: Q08DX002 (ip), vehicle: saline with Tween-80): 112 % of control
T/C (endpoint: median survival time, dose: 512.0 mg/kg/injection, schedule: Q08DX002 (ip), vehicle: saline with Tween-80): 156 % of control

CC1C(c2ccccc2)OP(=O)(N(CCCl)CCCl)N1C (configuration not stated)
T/C (endpoint: mean survival time, dose: 1.56 mg/kg/injection, schedule: Q01DX009 (ip), vehicle: other): 110 % of control
T/C (endpoint: mean survival time, dose: 3.13 mg/kg/injection, schedule: Q01DX009 (ip), vehicle: other): 101 % of control
T/C (endpoint: mean survival time, dose: 6.25 mg/kg/injection, schedule: Q01DX009 (ip), vehicle: other): 98 % of control
T/C (endpoint: mean survival time, dose: 12.5 mg/kg/injection, schedule: Q01DX009 (ip), vehicle: other): 103 % of control and 95 % of control and 97 % of control
T/C [3]: 92 % of control
T/C (endpoint: mean survival time, dose: 25.0 mg/kg/injection, schedule: Q01DX001 (ip), vehicle: other): 97 % of control and 100 % of control
T/C [9]: 104 % of control and 95 % of control
T/C [4]: 86 % of control
T/C (endpoint: mean survival time, dose: 31.3 mg/kg/injection, schedule: Q01DX001 (ip), vehicle: other): 104 % of control [middle of 4 runs]
T/C (endpoint: mean survival time, dose: 50.0 mg/kg/injection, schedule: Q01DX001 (ip), vehicle: other): 102 % of control and 92 % of control
T/C [10]: 95 % of control and 100 % of control
T/C [5]: 100 % of control
T/C (endpoint: mean survival time, dose: 62.5 mg/kg/injection, schedule: Q01DX001 (ip), vehicle: other): 104 % of control and 103 % of control and 101 % of control
T/C (endpoint: mean survival time, dose: 100.0 mg/kg/injection, schedule: Q01DX001 (ip), vehicle: other): 103 % of control and 97 % of control
T/C [7]: 97 % of control and 100 % of control
T/C [6]: 88 % of control
T/C (endpoint: mean survival time, dose: 125.0 mg/kg/injection, schedule: Q01DX001 (ip), vehicle: other): 95 % of control and 101 % of control and 104 % of control
T/C (endpoint: mean survival time, dose: 200.0 mg/kg/injection, schedule: Q01DX001 (ip), vehicle: other): 103 % of control and 108 % of control
T/C [8]: 95 % of control and 101 % of control
T/C (endpoint: mean survival time, dose: 250.0 mg/kg/injection, schedule: Q01DX001 (ip), vehicle: other): 103 % of control and 98 % of control and 97 % of control
T/C (endpoint: mean survival time, dose: 500.0 mg/kg/injection, schedule: Q01DX001 (ip), vehicle: other): 107 % of control and 103 % of control and 104 % of control

OCC1OC(n2ncc3cncnc32)C(O)C1O (configuration not stated)
T/C [9]: 94 % of control
T/C [10]: 97 % of control
T/C [7]: 90 % of control
T/C [8]: 97 % of control

CN(C)c1ccc(Nc2c3ccccc3nc3ccccc23)cc1
T/C (endpoint: mean survival time, dose: 120.0 mg/kg/injection, schedule: Q03HX040 (oral), vehicle: saline): 154 % of control
T/C (endpoint: mean survival time, dose: 150.0 mg/kg/injection, schedule: Q03HX008 (oral), vehicle: saline): 124 % of control
T/C (endpoint: mean survival time, dose: 300.0 mg/kg/injection, schedule: Q03HX016 (oral), vehicle: saline): 152 % of control
T/C (endpoint: median survival time, dose: 22.5 mg/kg/injection, schedule: Q01DX009 (ip), vehicle: saline): 111 % of control
T/C (endpoint: median survival time, dose: 45.0 mg/kg/injection, schedule: Q01DX009 (ip), vehicle: saline): 161 % of control and 185 % of control
T/C (endpoint: median survival time, dose: 90.0 mg/kg/injection, schedule: Q01DX009 (ip), vehicle: saline): 188 % of control and 207 % of control

CC(=O)C(C(C)=O)C(c1cccnc1)C(C(C)=O)C(C)=O
T/C [11]: 104 % of control
T/C [12]: 107 % of control
T/C (endpoint: mean survival time, dose: 400.0 mg/kg/injection, schedule: Q01DX001 (ip), vehicle: saline with Tween-80): 98 % of control

CC(C)N(CC(=O)O)CC(=O)O
T/C [1]: 100 % of control
T/C [2]: 100 % of control

CCOC(=O)c1cc(=O)c2ccccc2[nH]1
T/C (endpoint: mean survival time, dose: 50.0 mg/kg/injection, schedule: Q01DX001 (ip), vehicle: saline with Tween-80): 93 % of control
T/C [11]: 98 % of control
T/C [12]: 90 % of control

CCC(C)C(C(=O)O)C(=O)O (configuration not stated)
T/C (endpoint: mean survival time, dose: 75.0 mg/kg/injection, schedule: Q01DX001 (ip), vehicle: saline): 100 % of control
T/C (endpoint: mean survival time, dose: 150.0 mg/kg/injection, schedule: Q01DX001 (ip), vehicle: saline): 100 % of control
T/C (endpoint: mean survival time, dose: 300.0 mg/kg/injection, schedule: Q01DX001 (ip), vehicle: saline): 102 % of control

— PubChem BioAssay AID256 (DTP/NCI, 2004)
